Measurements taken from PMC4623604, “Discovery of Small Molecules that Inhibit the Disordered Protein, p27^Kip1” (Scientific Reports, 2015).

Legend:
p27-KID [1] = target: T1, p27-KID (Homo sapiens, UniProt P46527); experiment: NMR fragment screening and 2D 1H-15N HSQC chemical shift perturbation mapping; format: binding; set-up: key to Binding Group (site of chemical shift perturbations in p27-KID): Molecules in Group 1 bound to a localized region, F87YY89; molecules in Group 2 bound to this region as well as two others containing two W residues (W60 and W76); conditions: 100 μM 15N-p27-KID; for chemical shift perturbations in 2D HSQC spectra of p27-KID: titrated to 30-fold molar excess (3 mM)
T1 construct: 6xHis (N, cleaved yes); made in house; host or cells: E. coli (pET28a)
Description: We used one-dimensional (1D) ^1H WaterLOGSY[35] and STD[36] […] Fragment molecules were selected from either a commercial library (1,100 compounds from the Ro3 collection, Maybridge/Thermo Fisher Scientific) or an in-house library of 1,222 compounds based on the “Rule of Three”[40] and other criteria (see Methods). […] Binding sites for these compounds were identified by titration into ^15N-p27-KID and analysis of two-dimensional (2D) ^1H-^15N HSQC spectra. […] We termed these molecules Groups 1 and 2, respectively (Fig. 1b,c); representative ^1H CSP histograms are shown in Fig. 1d,e, and ^15N CSPs are presented in Suppl. Fig. 2. Data for all other small molecules are shown in Suppl. Fig. 3.
Screening and validation NMR experiments were performed at 298 K (25 °C) using either a Varian Inova 600 MHz spectrometer equipped with a triple resonance (HCN) room temperature gradient probe or a Bruker Avance 600 MHz spectrometer equipped with TCI cryogenic gradient probe and a SampleJet sample changer. Fragment molecules were initially analyzed as pools of five molecules dissolved at 10 mM each in DMSO-D6. […] For initial fragment screening experiments, one-dimensional (1D) ^1H- and WaterLOGSY[35] NMR spectra were recorded for compound pools without and with protein. […] DMSO-D6 was added to maintain a constant concentration (2% vol/vol). […] Tryptophan and tyrosine, respectively, were titrated into ^15N-p27-KID (100 μM) up to 3 mM. Three-dimensional (3D) backbone triple-resonance experiments to establish resonance assignments for the p27 constructs were performed using the Bruker Avance 600 MHz spectrometer. […] Fig. 12b,c and d,e, respectively. 2D ^1H-^15N TROSY-HSQC NMR experiments with ^2H/^13C/^15N-p27-D2/Cdk2/cyclin A and SJ403 have been recorded at 308 K (35 °C). 2D ^1H-^15N HSQC experiments of representative fragment hits (1 mM of SJ319843, group 1 and SJ403, group 2, respectively) with ^15N-p21-KID (20 μM) were recorded at 298 K using a Bruker Avance 600 MHz spectrometer. NMR spectra were processed using Bruker Topspin software and analyzed using computer-aided resonance assignment (CARA) software.
Chemical shift perturbations are generally quantified as combined ^1H and ^15N chemical shift values. […] Thus, the use of a combined chemical shift values would mask the effects of compound binding. […] Thus, the assessment of statistical significance was based upon whether a particular CSP value was larger than, i) the experimental spectral resolution in the given dimension (^1H or ^15N) and ii) the quantity, Δδave + 2σ, for that dimension.

p27-KID [2] = target: T1, p27-KID; experiment: NMR 2D 1H-15N in-phase HSQC titration, binding affinity for p27:small molecule interactions; conditions: sixteen-point titration, 100 μM 15N-p27-KID, inhibitor 0-3 mM
Protocol: 1D and 2D NMR analysis of these molecules led to the identification of 15 additional p27-D2-binding compounds (six with Group 1-like binding features and nine with Group 2-like features; Suppl. Fig. 3b and Suppl. Table 1b).
Sixteen point titrations of representative fragment hits from Group 1 and Group 2 (SJ572710 and SJ572403, respectively) into ^15N-p27-KID (100 μM) were recorded using an adopted “in-phase” 2D ^1H-^15N HISQC with proton decoupling during ^15N chemical shift labeling achieved with a WALTZ16 composite pulse with an amplitude of 7.1 kHz[54][55]. All experiments were collected at a Bruker Avance 800 MHz spectrometer equipped with TCI cryogenic gradient probe. The following molar ratios of ^15N-p27-KID (100 μM) to inhibitor were used: 1:0, 1:0.1, 1:1.5, 1:3, 1:4.5, 1:6, 1:7.5, 1:9, 1:10.5, 1:12, 1:15, 1:18, 1:21, 1:24, 1:27 and 1:30. Each spectrum was recorded with 256 (t1,max = 31.0 ms) and 1024 (t2,max = 106.5 ms) complex points in the ^15N and ^1H dimensions, respectively, with eight transients collected per point. The spectral resolution of the ^1H and ^15N dimensions was 2.4 and 1.7 Hz, respectively. […] The data was processed using the NMRPipe package[56] and analyzed using in-house scripts written in Python using the Scipy computing libraries and Mathematica (Wolfram Research). […]

Cdk2/cyclin A [3] = target: T2, Cdk2/cyclin A (Homo sapiens, UniProt P24941); experiment: Cdk2/cyclin A kinase activity assay (Histone H1 substrate); format: biochemical
T2 construct: Full length human Cdk2, active Cdk2 (phosphorylated at threonine 160); truncated human cyclin A (residues 173–432); made in house
Protocol: Cdk2/Cyclin A (200 pM) was mixed with Histone H1 (15 μM; EMD Millipore), p27-D2 (200 nM) and varied amounts of lyophilized SJ403 and incubated overnight at 4 °C. The effect of the SJ403 compound on Cdk2 activity was determined by performing similar experiments in the absence of p27-D2. Subsequently, ATP (50 μM total concentration, of which 6 μCi γ ^32P-ATP (PerkinElmer, Inc)) was added to each reaction and further incubated for 35 minutes at 30 °C. […] The sample buffer contained 20 mM HEPES pH 7.3, 25 mM sodium β-glycerolphosphate, 15 mM MgCl2, 16 mM EGTA, 0.5 mM Na3VO4 and 10 mM DTT. The reactions were quenched by addition of SDS-gel loading buffer (5 μL) and then analyzed by SDS-PAGE (10 μL). The gels were dried at 70 °C under vacuum and a phosphoimager (GE Healthcare, Piscataway, NJ) was used to quantify the ^32P-Histone H1 bands. IC50 values were determined by curve fitting using KaleidaGraph software. Experiments were performed in triplicate and mean IC50 and standard deviations of the mean values are reported.

Cdk2/cyclin A [4] = target: T2, Cdk2/cyclin A; experiment: Fluorescence anisotropy analysis of Cdk2/cyclin A binding to p27-D2-FL; conditions: Alexa Fluor 488 labeled p27-D2
Protocol: Figure 4 Fluorescence anisotropy analysis of displacement of p27-D2-FL from Cdk2/cyclin A by SJ403. (a) Fluorescence anisotropy analysis of Cdk2/cyclin A binding to p27-D2-FL. The starting condition (20 nM p27-D2-FL, 300 nM Cdk2/cyclin A) for assessing the effect of fragment hit SJ403 on p27 function is represented as the red circle on the binding isotherm. (b) Titration of SJ403 (0–3 mM) caused the displacement of p27-D2 from Cdk2/cyclin A, resulting in a decrease in fluorescence anisotropy values. Experiments were performed in triplicate and average values and the standard deviations of the means are shown.
The p27-D2-C99S-R93C mutant was conjugated with Alexa Fluor488-C5-Maleimide (Life Technologies, p27-D2-FL) in buffer containing 20 mM Na phosphate, pH7.3, 20 mM NaCl according to the manufacturer’s protocol. The conjugated protein was further purified by reverse-phase high performance liquid chromatography (HPLC) using a C4 column (Vydac) and 0.1% trifluoroacetic acid-containing water/acetonitrile solvent system. […] Fluorescence anisotropy measurements were performed at 25 °C on a Horiba Fluorolog 3 spectrofluorometer. […] All samples have been incubated overnight in the dark at 4 °C prior to fluorescence measurements. Fluorescence anisotropy binding data was analyzed using KaleidaGraph. […]

T1 sequence (P46527 22-105): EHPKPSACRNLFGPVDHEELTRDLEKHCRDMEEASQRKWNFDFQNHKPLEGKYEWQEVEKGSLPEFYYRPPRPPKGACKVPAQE

## N[C@@H](Cc1ccc(O)cc1)C(=O)O [tyrosine, reference compound]
p27-KID [1]
  chemical shift perturbations in 2D HSQC spectra of p27-KID: neither aromatic amino acid cause chemical shift perturbations

## N[C@@H](Cc1c[nH]c2ccccc12)C(=O)O [tryptophan, reference compound]
p27-KID [1]
  chemical shift perturbations in 2D HSQC spectra of p27-KID: neither aromatic amino acid cause chemical shift perturbations

## O=c1oc2cc(OCCO)ccc2c2c1CCCC2 [SJ710]
p27-KID [2]
  Kd: 4800 ± 1300 µM
p27-KID [1]; 2D 1H-15N HSQC
  Binding Group (site of chemical shift perturbations in p27-KID): Group 1

## p27-D2: D2 sub-domain of p27, residues 58-105 of human p27 (RKWNFDFQNHKPLEGKYEWQEVEKGSLPEFYYRPPRPPKGACKVPAQE; UniProt P46527 58-105, looked up, fragment)
Cdk2/cyclin A [3]; 200 pM Cdk2/cyclin A, Histone H1 substrate, read-out: IC50, inhibition of Cdk2/cyclin A
  IC50: 0.152 ± 0.039 µM
Cdk2/cyclin A [3]; 200 nM p27-D2, 200 pM Cdk2/cyclin A, before SJ403
  Cdk2 kinase activity maintained (of full kinase activity): ~ 13%
Cdk2/cyclin A [4]
  Kd: 0.073 ± 0.008 µM
